The target of series [1] is Thymic stromal lymphopoietin (Homo sapiens) (UniProt Q969D9). In words: Inhibition of N-terminal FLAG tagged/C-terminal 6 His tagged human TSLP at 1 uM preincubated for 2 hrs followed by compound addition and measured after 18 hrs by ELISA method relative to control. As to conditions: time 20.0 hrs.
Series [2] has as its system SH-SY5Y. In words: Neuroprotective activity against H2O2-induced cell damage in human SH-SY5Y cells assessed as reduction in cell viability preincubated for 36 hrs followed by H2O2 addition and measured after 12 hrs by MTT assay. It counts as functional, cell-based.
Series [3] has as its system SH-SY5Y. The series is described as follows: Neuroprotective activity against H2O2-induced cell damage in human SH-SY5Y cells assessed as cell viability preincubated for 36 hrs followed by H2O2 addition and measured after 12 hrs by MTT assay. Type of series: functional, cell-based.
Series [4] has as its target T1, Acetylcholinesterase (Homo sapiens, UniProt P22303). In words: Inhibition of human AChE by Ellman's spectrophotometric method.
In series [5] the target is T2, Alpha glucosidase (Homo sapiens, UniProt O43451+P10253+P14410+Q2M2H8). The series is described as follows: Inhibition of alpha glucosidase (unknown origin). It counts as protein assay.
Series [6] concerns HGC-27. The series is described as follows: Antiproliferative activity against human HGC-27 cells assessed as reduction in cell viability incubated for 48 hrs by MTT assay. The following applies: HGC-27, 48 h. It counts as functional, cell-based.
Series [7] has as its system MGC-803. The series is described as follows: Antiproliferative activity against human MGC-803 cells assessed as reduction in cell viability incubated for 48 hrs by MTT assay. Type of series: functional, cell-based. The following applies: MGC-803, 48 h.
For series [8], the system named is Candida albicans. In words: Antifungal activity against Candida albicans assessed as reduction in fungal growth incubated for 16 hrs by microdilution method. Type of series: functional.
For series [9], the system named is Staphylococcus aureus. The series is described as follows: Antibacterial activity against Staphylococcus aureus assessed as bacterial growth inhibition incubated for 16 hrs. Type of series: functional.
Series [10] concerns Escherichia coli. In words: Antibacterial activity against Escherichia coli assessed as bacterial growth inhibition. Type of series: functional.
Series [11] relates to PC-12. The series is described as follows: Cytotoxicity against H2O2-induced cell damage in rat PC12 cells assessed as reduction in cell viability at 50 uM incubated for 24 hrs by MTT assay relative to control. It counts as functional.
Series [12] in a line: Aqueous solubility of compound by UV spectroscopy method. It counts as physicochemical. As to conditions: water.
A short description of series [13]: Antioxidant activity assessed as DPPH radical scavenging activity. Type of series: functional.
Series [14] has as its system Influenza A virus. The series is described as follows: Antiviral activity against influenza A virus H1N1 infected in MDCK cells assessed as reduction in virus induced cytopathic effect by CPE assay. Type of series: functional, organism-based.
Series [15] in a line: Permeability of the compound across blood brain barrier at pH 7.4 incubated for 4 hrs by parallel artificial membrane permeation assay. Type of series: ADME. As to conditions: pampa, pH 7.4, 4 h.
Series [16] addresses T3, Acetylcholinesterase (Rattus norvegicus, UniProt P37136).
T3 sequence (P37136 whole entry): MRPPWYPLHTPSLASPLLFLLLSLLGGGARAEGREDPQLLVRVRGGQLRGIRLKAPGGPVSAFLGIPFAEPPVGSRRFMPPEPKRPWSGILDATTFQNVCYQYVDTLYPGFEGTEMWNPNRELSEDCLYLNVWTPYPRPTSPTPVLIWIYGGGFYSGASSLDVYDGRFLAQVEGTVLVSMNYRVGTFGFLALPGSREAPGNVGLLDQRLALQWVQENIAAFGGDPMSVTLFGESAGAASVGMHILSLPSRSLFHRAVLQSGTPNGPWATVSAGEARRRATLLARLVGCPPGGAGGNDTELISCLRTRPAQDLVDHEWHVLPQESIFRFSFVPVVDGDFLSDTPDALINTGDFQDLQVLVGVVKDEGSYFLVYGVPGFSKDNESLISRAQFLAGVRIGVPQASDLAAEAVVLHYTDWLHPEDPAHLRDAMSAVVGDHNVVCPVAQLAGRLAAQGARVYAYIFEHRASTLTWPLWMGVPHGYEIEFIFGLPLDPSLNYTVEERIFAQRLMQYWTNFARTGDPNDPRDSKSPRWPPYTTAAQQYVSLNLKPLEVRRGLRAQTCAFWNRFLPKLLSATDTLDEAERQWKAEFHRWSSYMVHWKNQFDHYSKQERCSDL
The series is described as follows: Inhibition of rat cortex homogenate AChE preincubated for 5 mins followed by compound addition and measured after 15 mins by Ellman's method.

The target in series [17] is Butyrylcholinesterase (Rattus norvegicus, UniProt Q9JKC1). The series is described as follows: Inhibition of rat serum homogenate BuChE preincubated for 5 mins followed by compound addition and measured after 15 mins by Ellman's method. Type of series: cell-free.
Sequence of Butyrylcholinesterase (Q9JKC1 whole entry): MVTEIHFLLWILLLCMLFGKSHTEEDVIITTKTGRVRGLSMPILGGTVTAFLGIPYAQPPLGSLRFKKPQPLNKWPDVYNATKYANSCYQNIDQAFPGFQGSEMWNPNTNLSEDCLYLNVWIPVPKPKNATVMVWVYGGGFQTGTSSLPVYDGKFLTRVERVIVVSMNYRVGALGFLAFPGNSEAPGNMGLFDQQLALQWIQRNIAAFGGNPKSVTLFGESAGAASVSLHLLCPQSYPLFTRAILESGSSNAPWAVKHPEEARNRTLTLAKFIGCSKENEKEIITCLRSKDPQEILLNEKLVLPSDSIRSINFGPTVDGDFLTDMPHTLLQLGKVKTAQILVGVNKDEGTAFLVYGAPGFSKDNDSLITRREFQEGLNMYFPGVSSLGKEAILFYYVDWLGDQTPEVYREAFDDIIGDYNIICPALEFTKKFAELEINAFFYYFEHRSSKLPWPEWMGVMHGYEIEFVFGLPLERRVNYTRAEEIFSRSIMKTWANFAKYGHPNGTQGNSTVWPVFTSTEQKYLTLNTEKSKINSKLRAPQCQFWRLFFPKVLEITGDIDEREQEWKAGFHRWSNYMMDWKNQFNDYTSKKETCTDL
Series [18] concerns DU-145. The series is described as follows: Anticancer activity against human DU-145 cells assessed as inhibition of cell growth at 100 uM by colorimetric MTT assay relative to control. It counts as functional. More on the design: scale not given: the % may be the effect or the level left.
Series [19] relates to HepG2. In words: Antitumor activity against human HepG2 cells assessed as reduction in cell viability at 25 uM by colorimetric MTT assay relative to control. Type of series: functional.
In series [20] the test system is PC-12. The series is described as follows: Antioxidant activity in H2O2-induced cell damage in rat PC12 cells at 50 uM. Type of series: functional.
For series [21], the target named is Amyloid-beta precursor protein (Homo sapiens) (UniProt P05067). In words: Disaggregation of self-induced amyloid beta (unknown origin) fibrils relative to control.
Sequence of Amyloid-beta precursor protein (Homo sapiens) (P05067 whole entry): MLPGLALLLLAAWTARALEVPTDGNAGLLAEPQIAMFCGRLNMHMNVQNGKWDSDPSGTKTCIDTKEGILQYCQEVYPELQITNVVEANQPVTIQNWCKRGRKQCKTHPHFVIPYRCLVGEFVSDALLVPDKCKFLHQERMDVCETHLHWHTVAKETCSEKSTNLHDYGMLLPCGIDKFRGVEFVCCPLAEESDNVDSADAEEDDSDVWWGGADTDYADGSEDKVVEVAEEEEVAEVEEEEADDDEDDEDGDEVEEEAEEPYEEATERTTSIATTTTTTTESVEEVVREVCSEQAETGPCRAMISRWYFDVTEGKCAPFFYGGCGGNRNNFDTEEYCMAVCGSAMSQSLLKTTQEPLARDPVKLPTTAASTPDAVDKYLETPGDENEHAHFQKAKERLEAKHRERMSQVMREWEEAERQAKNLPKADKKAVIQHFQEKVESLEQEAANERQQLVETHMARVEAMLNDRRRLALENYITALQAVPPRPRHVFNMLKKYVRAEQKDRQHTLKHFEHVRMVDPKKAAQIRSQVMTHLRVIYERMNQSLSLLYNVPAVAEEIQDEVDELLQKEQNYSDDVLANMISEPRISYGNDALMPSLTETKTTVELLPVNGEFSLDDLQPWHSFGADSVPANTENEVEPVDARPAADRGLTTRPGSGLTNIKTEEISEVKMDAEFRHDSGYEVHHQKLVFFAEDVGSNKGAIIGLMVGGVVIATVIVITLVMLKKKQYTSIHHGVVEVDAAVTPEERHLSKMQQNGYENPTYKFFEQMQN
The target in series [22] is Acetylcholinesterase (Electrophorus electricus, UniProt O42275). The series is described as follows: Inhibition of electric eel AChE.
Sequence of Acetylcholinesterase (Electrophorus electricus, UniProt O42275) (O42275 whole entry): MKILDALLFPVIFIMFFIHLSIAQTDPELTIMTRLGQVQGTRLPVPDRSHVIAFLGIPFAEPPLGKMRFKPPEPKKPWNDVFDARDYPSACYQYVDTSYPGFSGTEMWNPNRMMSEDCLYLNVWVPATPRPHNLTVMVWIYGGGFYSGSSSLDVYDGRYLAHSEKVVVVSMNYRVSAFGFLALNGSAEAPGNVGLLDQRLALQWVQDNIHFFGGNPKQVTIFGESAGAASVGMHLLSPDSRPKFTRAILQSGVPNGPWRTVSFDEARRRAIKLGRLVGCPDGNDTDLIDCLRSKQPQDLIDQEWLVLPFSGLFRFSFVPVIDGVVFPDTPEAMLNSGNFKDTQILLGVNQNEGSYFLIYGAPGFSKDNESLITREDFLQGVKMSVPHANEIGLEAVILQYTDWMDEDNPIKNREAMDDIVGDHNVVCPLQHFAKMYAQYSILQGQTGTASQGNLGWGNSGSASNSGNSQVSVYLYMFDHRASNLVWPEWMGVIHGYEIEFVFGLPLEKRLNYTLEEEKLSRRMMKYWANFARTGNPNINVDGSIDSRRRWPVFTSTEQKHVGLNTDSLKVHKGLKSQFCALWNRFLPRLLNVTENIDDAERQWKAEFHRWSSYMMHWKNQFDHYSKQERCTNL
Series [23] concerns the target T1, Acetylcholinesterase. In words: Inhibition of AChE (unknown origin).
The target of series [24] is Amyloid-beta precursor protein (Homo sapiens) (UniProt P05067). In words: Inhibition of Cu2+ induced amyloid beta (unknown origin) aggregation relative to control. The following applies: concentration not given here.
Series [25] addresses T1, Acetylcholinesterase. The series is described as follows: Inhibition of human AChE.
Series [26] has as its target Amyloid-beta precursor protein (Homo sapiens) (UniProt P05067). In words: Inhibition of self-induced amyloid beta (unknown origin) aggregation relative to control. As to conditions: concentration not given here.
Series [27] has the same target. The series is described as follows: Disaggregation of Cu2+ induced amyloid beta (unknown origin) fibrils relative to control.
Series [28] has as its target T2, Alpha glucosidase. In words: Inhibition of alpha glucosidase (unknown origin) spectrophotometric analysis. It counts as protein assay.

Each structure is given as a SMILES string. In brackets after ≈: the same amount, converted by molar mass.

T1 sequence (P22303 whole entry): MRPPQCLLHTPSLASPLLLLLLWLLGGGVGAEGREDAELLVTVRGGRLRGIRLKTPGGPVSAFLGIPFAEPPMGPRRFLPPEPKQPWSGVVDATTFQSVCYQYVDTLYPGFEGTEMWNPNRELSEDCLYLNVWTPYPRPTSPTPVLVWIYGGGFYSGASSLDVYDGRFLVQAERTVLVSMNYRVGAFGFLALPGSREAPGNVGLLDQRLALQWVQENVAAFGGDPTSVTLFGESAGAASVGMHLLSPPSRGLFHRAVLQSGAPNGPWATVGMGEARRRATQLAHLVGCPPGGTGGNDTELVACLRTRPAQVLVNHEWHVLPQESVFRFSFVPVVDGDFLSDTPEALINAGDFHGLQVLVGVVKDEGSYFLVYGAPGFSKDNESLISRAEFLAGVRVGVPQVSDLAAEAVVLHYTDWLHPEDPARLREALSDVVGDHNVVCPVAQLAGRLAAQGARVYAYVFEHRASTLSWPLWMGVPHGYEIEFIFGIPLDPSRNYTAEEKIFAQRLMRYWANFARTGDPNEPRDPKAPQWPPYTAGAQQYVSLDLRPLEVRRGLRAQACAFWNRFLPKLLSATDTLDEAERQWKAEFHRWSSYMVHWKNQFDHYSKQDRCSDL
Sequence of Thymic stromal lymphopoietin (Homo sapiens) (Q969D9 whole entry): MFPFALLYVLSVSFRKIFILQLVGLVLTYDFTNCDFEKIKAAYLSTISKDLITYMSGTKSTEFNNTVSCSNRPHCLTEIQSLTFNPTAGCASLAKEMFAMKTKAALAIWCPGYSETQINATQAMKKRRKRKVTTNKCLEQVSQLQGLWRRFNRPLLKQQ

`O=c1cc(-c2cccc(-c3ccc(O)cc3)c2)oc2cc(O)cc(O)c12` returned an inhibition in series [1] of 77.5%.

With `O=C(NC(Cc1ccccc1)C(=O)Oc1c(O)cc2oc(-c3ccccc3)cc(=O)c2c1O)OCc1ccccc1` (stereo not given), the EC50 in series [2] was 24.8 µM; in series [3], 4.31 µM.

As to `COc1cc2oc(-c3ccc(NCCNc4c5c(nc6cc(Cl)ccc46)CCCC5)cc3)cc(=O)c2c(OC)c1OC`, the midpoint of inhibition in series [4], the IC50, lay at 4.73 µM.

For `COc1c(C(C)c2ccc(O)cc2O)cc2oc(-c3ccccc3)cc(=O)c2c1O` (stereo not given), the IC50 in series [5] amounted to 39.21 µM.

As to `COC(=O)c1cc(Br)ccc1OCCCOc1ccc(-c2cc(=O)c3c(OC)c(OC)c(OC)cc3o2)cc1`, the 50% inhibitory concentration (IC50) in series [6] worked out at 10.3 µM; in [7], 17.2 µM.

On to `CC(C)=CCCC(C)CCOC(=O)[C@H]1O[C@@H](Oc2cc3oc(-c4ccccc4)cc(=O)c3c(O)c2O)[C@H](O)[C@@H](O)[C@@H]1O` (stereo not given in full), for which the MIC was determined as 400 µM (≈ 234 µg/mL) in series [8], 800 µM (≈ 468 µg/mL) in series [9] and 3200 µM (≈ 1870 µg/mL) in series [10].

Regarding `COc1c(O)cc2oc(-c3ccc(O)cc3)cc(=O)c2c1O` [HISPIDULIN], the inhibition at 50 µM in [11] is 94.2%. Further, in [12], the concentration in solution (solubility) came to 15.3 µg/mL (≈ 51.1 µM). In series [13], the IC50 came out at 19.3 µM.

With `COc1c(O)cc2oc(-c3cccc(Br)c3)cc(=O)c2c1O`, the EC50 in series [14] was 4.5 µM.

In the case of `CN1C(=O)[C@@H](Cc2ccc(NC(=O)[C@H]3O[C@@H](Oc4cc5oc(-c6ccccc6)cc(=O)c5c(O)c4O)[C@H](O)[C@@H](O)[C@@H]3O)cc2)NC(=O)[C@H]1Cc1ccc2ccccc2c1`, the BBB in series [15] is recorded as 7.22%.

For the compound `CCN(CC)C(=O)Oc1ccc(-c2cc(=O)c3c(O)c(OC)c(OC)cc3o2)cc1`, the IC50 in series [16] was found to be 1.2 µM; in [17], 22.1 µM.

Turning to `COc1cc2oc(-c3ccc(N)cc3)cc(=O)c2c(OC)c1OC`, the Activity in [18] was 60%; in series [19], less than 2%.

As for `CC(c1cc(O)c2c(=O)cc(-c3ccccc3)oc2c1)c1ccc(O)cc1O` (stereo not given), the IC50 in series [5] is 44.11 µM.

For `COc1c(O)cc2oc(-c3ccccc3Br)cc(=O)c2c1O`, the EC50 in [14] amounted to 4 µM.

For the compound `CC(C)N(CCOc1c(O)cc2oc(-c3ccc(O)cc3)cc(=O)c2c1O)C(C)C`, the Activity in [20] is 72.12%.

For the compound `CCN(C)C(=O)Oc1ccc(-c2cc(=O)c3c(O)c(O)c(OC(=O)N[C@@H](Cc4ccccc4)C(=O)OC(C)(C)C)cc3o2)cc1`, the values for the Activity in series [21] and in [27] were 84.2% and 78.7%, respectively. The concentration for half-maximal inhibition (IC50) came to 6.01 µM in series [22], 4.73 µM in series [23] and 7.91 µM in [25]. Besides, the inhibition in series [24] stood at 86.2%; in series [26] it was 89.2%.

With `CCN(CCCCOc1ccc(-c2cc(=O)c3c(O)c(OC)c(OC)cc3o2)cc1)Cc1ccccc1OC`, the IC50 in series [28] amounted to 25.78 µM.
